The values that follow come from patent US8337828B2, “Use of thymosin alpha 1, alone or in combination with PTX3 or ganciclovir, for the treatment of cytomegalovirus infection” (priority 2006, dated 2012).

Ends that are not written are not given here.

One assay concerns lymphosarcoma cells. Particulars: mouse, in vivo; cited from earlier work.
For a further assay, the system named is MCMV. Kind of assay: Viral replication in DC subsets (real-time PCR of MCMV gB transcripts). The assay is classed as cell-based, BALB/c mice. Particulars: 50 μg/ml for 2 h before infection, 48 h. The method, then: (FIG. 3a) CD11b+DC or pDC were generated from bone marrow of BALB/c mice, infected with MCMV and assessed for morphology by light microscopy and viral replication by real-time PCR of MCMV gB transcripts expression (both at 48 h) or for IRF7 nuclear expression by immunobloting with anti-IRF7 (2 h later). Cells were exposed (+) or not (−) to 50 μg/ml Thymosin alpha 1 for 2 h at 37° C. before infection. − represents uninfected cells. The results shown represent one representative experiment out of 3.
DC subset generation. DC were obtained by culturing 10^6/ml BALB/c bone marrow cells in Iscove's modified medium, containing 10% filtered bovine serum, 50 μM 2-mercaptoethanol, sodium pyruvate (1 mM), 2 mM L-glutamine, HEPES (10 mM), and 50 μg/ml gentamycin in the presence of 150 U/ml mouse rGM-CSF (Sigma) and 75 U/ml rIL-4 (R&D Systems) for 7 days to obtain CD11b+DC or 200 ng/ml FLT3-L (Immunex Corporation, Seattle, Wash.) for 9 days to obtain pDC. […]
Inhibition of viral replication. […] Infectivity was measured 48 h later.
Real time RT-PCR for quantification of MCMV mRNA. […]
(Quantitative PCR measures a nucleic acid by following its amplification.)

In the case of “Ac-Ser-Asp-Ala-Ala-Val-Asp-Thr-Ser-Ser-Glu -Ile-Thr-Thr-Lys-Asp-Leu-Lys-Glu-Lys-Lys-Glu-Val-Glu-Glu-Ala-Glu-Asn-O (Ac-SDAAVDTSSEITTKDLKEKKEVEEAEN) [Thymosin alpha 1, acidic peptide present in thymus extract with immunoregulatory properties]”, the “local sarcoma growth, liver and lung metastases of lymphosarcoma cells” value in the assay with lymphosarcoma cells is on record as “significantly reduced”. Further, the viral replication entry in the assay with MCMV (CD11b+DC) is reported as “not affected”; with MCMV (pDC), “actually promoted”.
